These results are taken from US20110135571A1, “HYBRID NANOPARTICLES AS ANTI-CANCER THERAPEUTIC AGENTS AND DUAL THERAPEUTIC/IMAGING CONTRAST AGENTS” (priority 2008, published 2011).

pIC50: −log10 of the molar value.

For experiment [1], the system named is Angiogenic human colon cancer (HT-29) cells. Nature of the experiment: HT-29 viability assays. It is filed as cell-based. The settings on record: HT-29, 2000 cells/well, 72 hours, untargeted particles. The text has this: (§1) Cell Lines All cell lines were purchased from the Tissue Culture Facility of the UNC Lineberger Comprehensive Cancer Center (Chapel Hill, N.C., United States of America) and cultured as per American Type Culture Collection (ATCC; Manassas, Va., United States of America) recommendations. HT29 cells (ATCC# HTB 38) were propagated in McCoy's 5A (Cellgro, Manassas, Va., United States of America) supplemented with 10% fetal bovine serum and 1% penicillin/streptomycin. MCF-7 cells (ATCC# HTB 22) were propagated in MEM Alpha (Cellgro, Manassas, Va., United States of America) supplemented with 10% fetal bovine serum, 1% penicillin/streptomycin, 1% sodium pyruvate, and 10 μg/mL insulin.
(§2) HT-29 viability assays: Angiogenic human colon cancer (HT-29) cells were grown in 96 well plates at 2000 cells/well to 100 μL total volume. After a 24 hour incubation, the media was replaced with 100 μL of drug solution containing 0.5% DMSO and 0.5% phosphate buffered saline (PBS) in media, with drug concentrations varying as indicated. All concentrations were performed in quadruplicate. Cell viability was measured after 72 hours using CellTiter 96 Aqueous One Solution Assay (Promega Corporation, Madison, Wis., United States of America), according to the manufacturer's protocol.

In experiment [2] the test system is MCF-7 cells (breast cancer). Nature of the experiment: MCF-7 Viability Assays. The class given is cell-based, human.
Excerpt: as §1, §2
MCF-7 Viability Assays. As a further control, cell viability assays were also performed using MCF-7 cells (breast cancer). MCF-7 cells were assayed under the same conditions as HT-29, and also at 4000 cells/well and 72 hours. Unlike with HT-29, Pt(IV) drugs are active. […] NCP-1′-b was also tested but at 2000 cells/well.

Setting [3] is: MCF-7, 4000 cells/well, 72 hours.

On to `[NH2][Pt]([NH2])([Cl])([Cl])([O]C(=O)CCC(=O)O)[O]C(=O)CCC(=O)O` [DSCP, c,c,t-Pt(NH3)2Cl2(O2CCH2CH2CO2H)2], for which the “cell death on treatment of HT-29 cells” value in experiment [1] is “did not lead to any appreciable cell death”. The compound further showed a pIC50 in experiment [2] (setting [3]) of 4.95.
As for cis-Pt(NH3)2Cl2 [cisplatin], the pIC50 was 5.68 in experiment [2] (MCF-7, 2000 cells/well) and 4.97 in experiment [2] (setting [3]).

For orientation: pIC50 means −log10 of the IC50, conventionally taken in molar units.
